Values joined by “and” are separate entries in the source; they are usually repeats but may differ in a detail not shown here. Equal entries are not always repeated.
Legend:
[1] = system: MDA-MB-231 triple negative breast cancer cells (NQO1 deficient); assay: Mitochondrial ROS generation by MitoSox, flow cytometry; type: cell-based
Method: (§1) Determination of ROS generation: To measure intracellular generation of ROS, cells were incubated with 5 μM DCF-DA (Sigma) for 20 min at 37° C. after drug exposure. To measure mitochondrial generated ROS, cells were incubated with 5 μM of MitoSox (Invitrogen) for 20 min at 37° C. After wash with PBS, cells were trypsinized and suspended in HBSS containing 1% BSA. The fluorescence intensity of DCF and MitoSox were analyzed using an Accuri C6 flow cytometer (BD Accuri Cytometers, Ann Arbor, Mich.).
(§2) A549 non-small cell lung cancer cells (high NQO1) and MDA-MB-231 triple negative breast cancer cells (NQO1 deficient) were treated as indicated in FIG. 6. Mitochondrial ROS generation was determined by MitoSox followed by flow cytometry, essentially as described above.
Mitochondrial ROS generation was determined by MitoSox followed by flow cytometry. Left-shift of peak indicates decrease of ROS and right-shift of peak indicates increase of ROS.

A549 cells [2] = assay: ROS generation by DCF-DA and MitoSox, flow cytometry; type: cell-based; details: for ROS generation (DCF) / mitochondrial ROS generation (MitoSox): A549, 6 μM, 16 h, flow cytometry (FIG. 4A)
Method: (§3) (4A) A549 cells were treated with XJB-OMe, 3-hydroxy-β-lapachone (14), or XJB-lapachone (18) at 6 μM for 16 h. The generation of ROS was determined by staining cells with MitoSox and DCFHDA. The fluorescence intensity was measured by flow cytometry. Data represents the mean±S.D. of triplicates. (4B) A549 cells were treated as described in A, and the oxygen consumption rate was determined by a Seahorse extracellular flux analyzer. […] (4C) A549 cells were treated as described in A, and mitochondria morphology was examined by electron microscopy. Representative images are shown. (4D) A549 cells were treated as described above. The expression of the autophagy marker LC3 was examined by western blot. β-actin was used as a loading control. Representative images are shown.
as §1, §2

LC3 = assay: Western blot of autophagy marker LC3; type: cell-based; details: A549, western blot (FIG. 4D)
Method: as §3
Western blot analysis: Western blot was performed. Primary antibody LC3 was obtained from Novus (Littleton, Colo.) and β-actin was purchased from Sigma-Aldrich (St. Louis, Mo.).

A549 lung cancer cells = assay: Cell growth/death assay (4 h exposure, wash-out, 3 days drug free); type: cell-based; details: A549, 10 μM for 4 h, washed, 3 days drug free media (FIG. 3C)
Method: (§4) (3A) A549 non-small cell lung cancer cells were treated with XJB-OMe, 3-hydroxy-β-lapachone (14), or XJB-lapachone (18) at indicated concentrations for 24 h. Cell viability was determined by a CellTiter-Blue assay. Data represents the mean±SEM. (3B) PEO1 ovarian cancer cells, MDA-MB-231 breast cancer cells, and 983B melanoma cells were treated with XJB-lapachone (18) at indicated concentrations for 24 h. Cell viability was determined by a CellTiter-Blue assay. Data represents the mean±SEM. (3C) Equal numbers of A549 and IMR90 lung fibroblast cells were treated with 10 μM XJB-lapachone (18) for 4 h. XJB-lapachone was then washed away and cells were incubated in drug free media for 3 days. Cell viability was determined by a CellTiter-Blue assay. (3D) A549 cells were treated with XJB-OMe, 3-hydroxy-β-lapachone (14), or XJB-lapachone (18) at 6 μM concentrations for 20 h. […] Apoptotic and necrotic cell death were determined by Annexin V and PI staining. […]
(§5) Cell viability and apoptosis assays: Cell viability was determined using a CellTiter-Blue Cell Viability Assay (Promega, Madison, Wis.). The survival fractions were calculated after setting untreated control cells at 100%. An FITC Annexin V Apoptosis Detection Kit (BD PharMingen, San Diego, Calif.) was used to quantify apoptotic cells and necrotic cells, according to the manufacturer's instructions. […]

[3] = system: IMR90 lung fibroblast cells; assay: as above; type: cell-based, human; details: IMR90, 10 μM for 4 h, washed, 3 days drug free media (FIG. 3C)
Method: as §4, §5

MDA-MB-231 rho0 cells = assay: Celltiter-blue cell viability in rho0 cells; type: cell-based; details: MDA-MB-231 rho0 cells (mtDNA depleted), increasing concentrations, 24 h (FIG. 8)
Method: MDA-MB-231 parental and rho0 cells (established by long-term culture of parental MDA-MB-231 cells in the presence of 50 ng/ml ethidium bromide) were treated with increasing concentrations of XJB-lapachone for 24 h. Cell viability was determined by Celltiter-blue.

A549 cells [4] = assay: Mitochondria morphology by transmission electron microscopy; type: cell-based; details: A549, 6 μM, 16 h, electron microscopy (FIG. 4C)
Method: as §3
Microscopy: For vacuole imaging, A549 cells were plated in 12-well plate, treated with compounds and the phase contrast images were captured using a Nikon Eclipse TS100 inverted microscope. For transmission electron microscopy analysis, A549 cells cultured in 6-well plate were fixed with 2.5% glutaraldehyde (Sigma-Aldrich) in PBS for 1 h at room temperature, and post-fixed for 1 h at 4° C. in 1% OsO4 with 1% K3Fe(CN)6. After dehydration and embedding, ultrathin (70 nm) sections were cut and mounted onto copper grids. […]

Compound: CC(C)C[C@@H](/C=C/[C@H](Cc1ccccc1)C(=O)N1CCC[C@H]1C(=O)N[C@H](C(=O)N[C@@H](CCCNC(=O)OCc1ccccc1)C(=O)NCCC(=O)OC1CC2=C(OC1(C)C)c1ccccc1C(=O)C2=O)C(C)C)NC(=O)OC(C)(C)C (stereo partly drawn) [XJB-lapachone, 2,2-Dimethyl-5,6-dioxo-3,4,5,6-tetrahydro-2H-benzo[h]chromen-3-yl 3-((S)-2-((S)-2-((S)-1-((2S,5S,E)-2-benzyl-5-((tert-butoxycarbonyl)amino)-7-methyloct-3-enoyl)pyrrolidine-2-carboxamido)-3-methylbutanamido)-5-(((benzyloxy)carbonyl)amino)pentanamido) propanoate]
- mitochondrial ROS generation (MitoSox), dose and time dependence ([1]; MDA-MB-231 (NQO1 deficient) (FIG. 6)): Induces Mitochondrial ROS Generation in a Dose and Time Dependent Manner
- mitochondrial ROS levels at high concentration ([1]; MDA-MB-231, 2 h, high concentration (FIG. 7)): Increases Mitochondrial ROS
- mitochondrial ROS levels at low concentration ([1]; MDA-MB-231, 2 h, low concentration (FIG. 7)): Reduces Mitochondrial ROS Levels
- concentration at which ROS decreased ([1]; as described in the examples): ≤ 1 µM
- concentration that increases ROS production in the mitochondria ([1]; as described in the examples): > 1.0 µM and > 2.0 µM
- mitochondrial ROS generation (MitoSox), dose and time dependence (A549 cells [2]; A549 (high NQO1) (FIG. 6)): Induces Mitochondrial ROS Generation in a Dose and Time Dependent Manner
- ROS generation (DCF) (A549 cells [2]): dramatic increase of ROS generation
- mitochondrial ROS generation (MitoSox) (A549 cells [2]): dramatic increase of ROS generation
- ROS generation (DCF) (A549 cells [2]; listed as 18): stronger than unconjugated 3-hydroxy-β-lapachone
- mitochondrial ROS generation (MitoSox) (A549 cells [2]; listed as 18): stronger than unconjugated 3-hydroxy-β-lapachone
- increase in LC3-II immunoblot signal (LC3): increase in an LC3-II immunoblot signal was observed
- cell viability after four-hour exposure (A549 lung cancer cells): significantly reduced the viability
- cell viability after four-hour exposure (toxic effect on non-transformed cells) [3]: toxic effect was less prominent
- induction of cell death in rho0 cells (cell viability) (MDA-MB-231 rho0 cells): effective in inducing cell death in rho0 cells
- mitochondria morphology (A549 cells [4]): onion skin-like structures of mitochondria were observed

Reference: US10968196B2, “Substituted β-lapachones for treating cancer” (University of Pittsburgh—Of the Commonwealth System of …, priority 2015, dated 2021)
